Results reported in patent EP4603105A1, “PHARMACEUTICAL COMPOSITION CONTAINING CYCLIC COMPOUND HAVING SELECTIVE KRAS INHIBITORY EFFECT AGAINST HRAS AND NRAS” (CHUGAI SEIYAKU KABUSHIKI KAISHA, priority 2022, dated 2024).
pIC50: −log10 of the molar value. *1 amine or outer side, *2 acyl side, *3 side chain or, on linkers, in order; H or OH if unused. Where a SMILES comes first, the peptide text is derived from it. Bridges are numbered along the chain shown (N, C = ends). [ ]: non-standard residue; d: D form. The star is where a group is joined. hPhe(3-Cl-4-CF3) = N[C@@H](CCc1ccc(C(F)(F)F)c(Cl)c1)C(=O)O; X29 = C#CCN([C@@H](Cc1ccc(C(F)(F)F)cc1)C(=O)[*:2])[*:1]; NPrPhe(4-CF3) = CCCN[C@@H](Cc1ccc(C(F)(F)F)cc1)C(=O)O; NMeGly(cPent) = CN[C@H](C(=O)O)C1CCCC1; Hyp = O=C(O)[C@@H]1C[C@@H](O)CN1; NMeD = CN[C@@H](CC(=O)O)C(=O)O; NMeL = CN[C@@H](CC(C)C)C(=O)O; Morpholide = C1CN(*)CCO1; Ac5c = NC1(C(=O)O)CCCC1; Aze = O=C(O)[C@@H]1CCN1; Ac4c = NC1(C(=O)O)CCC1; NEtG = CCNCC(=O)O; Sar = CNCC(=O)O

Key:
[1] = target: GDP-bound NRAS wild-type protein (Homo sapiens, UniProt P01111); experiment: Binding to NRAS by surface plasmon resonance (SPR), KD and KD ratio to KRAS
Sequence of GDP-bound NRAS wild-type protein (P01111 whole entry): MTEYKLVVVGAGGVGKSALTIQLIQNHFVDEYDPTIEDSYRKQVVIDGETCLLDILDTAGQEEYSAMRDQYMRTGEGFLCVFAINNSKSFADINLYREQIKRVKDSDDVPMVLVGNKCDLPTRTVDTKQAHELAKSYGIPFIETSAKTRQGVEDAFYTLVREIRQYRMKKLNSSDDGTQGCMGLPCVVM
Method: (§1) Surface plasmon resonance was used to analyze the binding affinity of compounds for KRAS, NRAS, and HRAS. The apparatus used was Biacore 8K, 8K+, or T200 (GE Healthcare), and the running buffer used was HBS (10 mM HEPES-NaOH, 150 mM NaCl, pH 7.4) containing 1 mM DTT, 10 mM MgCl2, 0.01% Tween 20, 10 µM GDP, and 4% DMSO.
(§2) Biotinylated Avi-tag fusion KRAS, NRAS, and HRAS proteins were expressed in E. coli BL21 (DE3) strains, and after cells were homogenized, they were purified using Streptavidin Mutein Matrix and Superdex 75. After purification, GDP-loaded KRAS, NRAS, and HRAS proteins were immobilized on the surface of Sensor Chip CAP (Cytiva) coated with Biotin CAPture Reagent in an immobilization amount of about 100 to 300 RU. Binding of each compound was evaluated by the Single Cycle Kinetics method, and a running buffer or a compound solution was added to the RAS protein non-immobilized surface and the immobilized surface to obtain a binding response. The flow rate was set to 100 µL/min, and in the compound-adding cycle, compound solutions having different concentrations were intermittently added for 75 seconds each, starting from a low concentration. […] In the blank cycle, a running buffer was intermittently added and not the compound solution. The Biotin CAPture Reagent and RAS proteins were immobilized for each cycle, and at the end of each cycle, the sensor chip was regenerated by the regeneration solution appended to the Biotin CAPture Kit (Cytiva). Measurement was carried out at 30°C.
(§3) The resulting sensorgram was subjected to curve fitting based on a 1:1 binding model on Biacore Insight Evaluation Software or T200 Evaluation Software, and thereby the dissociation constant KD of each compound with respect to KRAS, NRAS, and HRAS was determined. […] Blank indicates a compound from which the KD value with respect to NRAS or HRAS was not obtained.

[2] = system: human lung cancer strain NCI-H441; type: cell-based
Method: A test compound was dispensed into a U-bottom 384-well plate as 40 nL serially diluted dimethyl sulfoxide solutions using a liquid handler Echo (LABCYTE). […] This cell suspension was dispensed in an amount of 40 µL per well into a plate containing the test compound, and cultured at 37°C in a 5% carbon dioxide gas incubator. Four days later, 20 µL of CellTiter-Glo (registered trademark) (Promega) was added to each well and […] was measured. […]

[3] = target: HRAS wild-type protein (Homo sapiens, UniProt P01112); experiment: Binding to HRAS by surface plasmon resonance (SPR), KD and KD ratio to KRAS
Sequence of HRAS wild-type protein (P01112 whole entry): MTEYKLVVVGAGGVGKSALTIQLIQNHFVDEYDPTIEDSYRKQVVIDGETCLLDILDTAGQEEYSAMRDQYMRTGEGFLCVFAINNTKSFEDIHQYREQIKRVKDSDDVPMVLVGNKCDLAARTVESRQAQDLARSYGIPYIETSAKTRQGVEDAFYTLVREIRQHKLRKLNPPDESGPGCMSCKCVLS
Method: as §1, §2, §3

[4] = ratio of the KD value with respect to GDP-bound NRAS wild-type protein to the KD value with respect to KRAS
[5] = ratio of the KD value with respect to HRAS wild-type protein to the KD value with respect to KRAS
[6] = ratio of KD for GDP-bound NRAS wild-type protein to KD for KRAS
[7] = ratio of KD for HRAS wild-type protein to KD for KRAS
[8] = ratio of KD value for GDP-bound NRAS wild-type protein to KD value for KRAS (SPR)
[9] = ratio of KD value for HRAS wild-type protein to KD value for KRAS (SPR)

| SMILES | NRAS /KRAS [1, 4] | pIC50 [2] | HRAS /KRAS [3, 5] | NRAS /KRAS [1, 6] | HRAS /KRAS [3, 7] | NRAS /KRAS [1, 8] | HRAS /KRAS [3, 9] |
| --- | --- | --- | --- | --- | --- | --- | --- |
| CCO[C@@H]1C[C@H]2C(=O)NC3(CCC3)C(=O)N(C)[C@@H](C3CCCC3)C(=O)N(C)[C@H](C(=O)N(C)C)CC(=O)N(C)[C@@H](C)C(=O)N[C@@H]([C@@H](C)CC)C(=O)N(C)CC(=O)N(C)[C@H]3CCCCN(C3=O)[C@@H](Cc3ccc(C(F)(F)F)cc3)C(=O)N(C)CC(=O)N[C@@H](CCc3cc(F)c(C(F)(F)F)c(F)c3)C(=O)N2C1 [PP0587] | C (A compound having a KD ratio of 0.1 or more and less than 3 is denoted as C) | 8.29 | C (A compound having a KD ratio of 0.1 or more and less than 3 is denoted as C) |  |  |  |  |
| CCOC[C@H]1C(=O)N[C@@H]([C@@H](C)CC)C(=O)N(C)CC(=O)N(C)[C@H]2C/C=C\CCN(C2=O)[C@@H](Cc2ccc(C(F)(F)F)cc2)C(=O)N(C)CC(=O)N[C@@H](CCc2ccc(C(F)(F)F)c(OC)c2)C(=O)N2C[C@@H](C)C[C@H]2C(=O)NC2(CCC2)C(=O)N(C)[C@@H](C2CCCC2)C(=O)N(C)[C@H](C(=O)N(C)CC)CC(=O)N1C [PP2026] | A (a compound having 10 or more and less than 20 is denoted as A) | 7.65 | A (a compound having 10 or more and less than 20 is denoted as A) |  |  |  |  |
| CCC[C@H]1C(=O)N[C@@H]([C@@H](C)CC)C(=O)N(C)CC(=O)N(C)[C@H]2C/C=C\CCN(C2=O)[C@@H](Cc2ccc(C)cc2)C(=O)N(C)CC(=O)N[C@@H](CCc2cc(F)c(C(F)(F)F)c(F)c2)C(=O)N2CC3(CC3)C[C@H]2C(=O)NC2(CC(C)(C)C2)C(=O)N(C)[C@@H](CC(F)(F)F)C(=O)N(C)[C@H](C(=O)N(C)C)CC(=O)N1C [PP3003] |  | 7.51 |  | AA (a compound having 20 or more is denoted as AA) | A (a compound having 10 or more and less than 20 is denoted as A) |  |  |
| CCCO[C@@H]1C[C@H]2C(=O)NC3(CC(C)(C)C3)C(=O)N(C)[C@@H](C3CCCC3)C(=O)N(C)[C@H](C(=O)N(C)CC)CC(=O)N(C)[C@H]3CCCc4ccc(cc4)C[C@@H](C(=O)N(C)CC(=O)N[C@@H](CCc4ccc(C(F)(F)F)c(OC)c4)C(=O)N2C1)N1CC/C=C\C[C@@H](C1=O)N(C)C(=O)CN(C1CC1)C(=O)[C@H]([C@@H](C)CC)NC3=O [PP3088] |  | 7.82 |  | B (a compound having 3 or more and less than 10 is denoted as B) | B (a compound having 3 or more and less than 10 is denoted as B) |  |  |
| CCO[C@@H]1C[C@H]2C(=O)N(C)C3(CC(C)(C)C3)C(=O)N(C)[C@@H](C3CCCC3)C(=O)N(C)[C@H](C(=O)N(C)C)CC(=O)N(C)[C@H]3CCCC/C=C/c4ccc(cc4)C[C@@H](C(=O)N(C)CC(=O)N[C@@H](CCc4ccc(Cl)c(Cl)c4)C(=O)N2C1)N1CC/C=C\C[C@@H](C1=O)N(C)C(=O)CN(C)C(=O)[C@H]([C@@H](C)CC)NC3=O [PP3062] |  | 8.20 |  | A (a compound having 10 or more and less than 20 is denoted as A) | A (a compound having 10 or more and less than 20 is denoted as A) |  |  |
| CCC[C@H]1C(=O)N[C@@H]([C@@H](C)CC)C(=O)N(C2CC2)CC(=O)N(C)[C@H]2C/C=C\CCN(C2=O)[C@@H](Cc2ccc(C)cc2)C(=O)N(C)CC(=O)N[C@@H](CCc2ccc(C(F)(F)F)c(OC)c2)C(=O)N2C[C@H](OCC)C[C@H]2C(=O)N(C)C2(CCC2)C(=O)N(C)[C@@H](C2CCCC2)C(=O)N(C)[C@H](C(=O)N2CCCCC2)CC(=O)N1C [PP3096] |  | 7.45 |  | A (a compound having 10 or more and less than 20 is denoted as A) | A (a compound having 10 or more and less than 20 is denoted as A) |  |  |
| CCO[C@@H]1C[C@H]2C(=O)NC3(CCC3)C(=O)N(C)[C@@H](C3CCCC3)C(=O)N(C)C(C(C)C)CC(=O)N(C)[C@@H](CC)C(=O)N[C@@H]([C@@H](C)CC)C(=O)N(C)CC(=O)N(C)[C@H]3C/C=C\CCN(C3=O)[C@@H](Cc3ccc(C(F)(F)F)cc3)C(=O)N(C)CC(=O)N[C@@H](CCc3cc(F)c(C(F)(F)F)c(F)c3)C(=O)N2C1 (stereo partly drawn) [PP1590] |  | 8.10 |  |  |  | A (a compound having 10 or more and less than 20 is denoted as A) | B (a compound having 3 or more and less than 10 is denoted as B) |
| CC[C@H](C)[C@@H]1NC(=O)[C@H](CC)N(C)C(=O)C[C@@H](C(=O)N(C)C)N(C)C(=O)[C@H](C2CCCC2)N(C)C(=O)C2(CCC2)N(C)C(=O)[C@@H]2C[C@@H](C)CN2C(=O)[C@H](CCc2cc(F)c(C(F)(F)F)c(F)c2)NC(=O)CN(C)C(=O)[C@H](Cc2ccc(C)cc2)N2CC/C=C\C[C@@H](C2=O)N(C)C(=O)[C@@H]2CCCN2C1=O [PP1789] |  | 8.02 |  |  |  | A (a compound having 10 or more and less than 20 is denoted as A) | A (a compound having 10 or more and less than 20 is denoted as A) |
| CCCN1C(=O)CN(C)C(=O)CN(CC)C(=O)[C@H]([C@@H](C)CC)NC(=O)[C@H](CC(C)C)N(C)C(=O)C[C@@H](C(=O)N2CCOCC2)NC(=O)[C@H](C2CCCC2)N(C)C(=O)C2(CCC2)NC(=O)[C@@H]2C[C@@H](OCC)CN2C(=O)[C@H](CCc2ccc(C(F)(F)F)c(Cl)c2)NC(=O)CN(C)C(=O)[C@@H]1Cc1ccc(C(F)(F)F)cc1 [PP0336] ([NMeL]I[NEtG][Sar][NPrPhe(4-CF3)][Sar][hPhe(3-Cl-4-CF3)][Hyp](Et)[Ac4c][NMeGly(cPent)]D-Morpholide; lactam N-11) |  | 7.14 |  | B (a compound having 3 or more and less than 10 is denoted as B) | B (a compound having 3 or more and less than 10 is denoted as B) |  |  |
| CCO[C@@H]1C[C@H]2C(=O)NC3(CCC3)C(=O)N(C)[C@@H](C3CCCC3)C(=O)N(C)[C@H](C(=O)N3CCOCC3)CC(=O)N(C)[C@@H](Cc3ccccc3C)C(=O)N[C@@H]([C@@H](C)CC)C(=O)N(C)CC(=O)N(C)[C@H]3CCCCCN(C3=O)[C@@H](Cc3ccc(C(F)(F)F)cc3)C(=O)N(C)CC(=O)N[C@@H](CCc3cc(F)c(C(F)(F)F)c(F)c3)C(=O)N2C1 [PP0931] |  | 6.74 |  | A (a compound having 10 or more and less than 20 is denoted as A) | B (a compound having 3 or more and less than 10 is denoted as B) |  |  |
| CCCN1C(=O)CN(C)C(=O)CN(CC)C(=O)[C@H]([C@@H](C)CC)NC(=O)[C@H](CC(C)C)N(C)C(=O)C[C@@H](C(=O)N2CCOCC2)N(C)C(=O)[C@H](C2CCCC2)N(C)C(=O)C2(CCCC2)NC(=O)[C@@H]2CCN2C(=O)[C@H](CCc2ccc(C(F)(F)F)c(Cl)c2)NC(=O)CN(C)C(=O)[C@@H]1Cc1ccc(C(F)(F)F)cc1 [PP0294] ([NMeL]I[NEtG][Sar][NPrPhe(4-CF3)][Sar][hPhe(3-Cl-4-CF3)][Aze][Ac5c][NMeGly(cPent)][NMeD]-Morpholide; lactam N-11) |  | 7.26 |  | B (a compound having 3 or more and less than 10 is denoted as B) | C (A compound having a KD ratio of 0.1 or more and less than 3 is denoted as C) |  |  |
| C#CCN1C(=O)CN(C)C(=O)CN(C)C(=O)[C@H]([C@@H](C)CC)NC(=O)[C@H](CC(C)C)N(C)C(=O)C[C@@H](C(=O)N2CCOCC2)N(C)C(=O)[C@H](C2CCCC2)N(C)C(=O)C2(CCCC2)NC(=O)[C@@H]2CCCN2C(=O)[C@H](CCc2ccc(C(F)(F)F)c(Cl)c2)NC(=O)CN(C)C(=O)[C@@H]1Cc1ccc(C(F)(F)F)cc1 [PP0130] ([NMeL]I[Sar][Sar][X29][Sar][hPhe(3-Cl-4-CF3)]P[Ac5c][NMeGly(cPent)][NMeD]-Morpholide; lactam N-11) |  | 8.06 |  | C (A compound having a KD ratio of 0.1 or more and less than 3 is denoted as C) | C (A compound having a KD ratio of 0.1 or more and less than 3 is denoted as C) |  |  |
| CCCN(C)C(=O)[C@@H]1CC(=O)N(C)[C@@H](CC(F)F)C(=O)N[C@@H]([C@@H](C)CC)C(=O)N(C)CC(=O)N(C)[C@H]2C/C=C\CCN(C2=O)[C@@H](Cc2ccc(C(F)(F)F)cc2)C(=O)N(C)CC(=O)N[C@@H](CCc2ccc(C(F)(F)F)c(OC)c2)C(=O)N2C[C@@H](C)C[C@H]2C(=O)NC2(CC(C)(C)C2)C(=O)N(C)[C@@H](C2CCCC2)C(=O)N1C [PP1989] | A (a compound having 10 or more and less than 20 is denoted as A) | 7.95 | A (a compound having 10 or more and less than 20 is denoted as A) |  |  |  |  |
